Converted amounts (≈) assume the structure as drawn. Where two headings read alike, the source gives them in different places.
Experiments:
[1] = tested on: platelet aggregation induced by adenosine-diphosphoric acid (ADP); test: inhibiting activity on platelet aggregation induced by ADP on human blood; assay type: cell-based; conditions: for IC50: read-out: IC50 (concentration which produces 50%-inhibition of platelet aggregation); for Relative activity against PGE1: relative to PGE1 (control) = 1.00, ADP-induced
Description: The platelet aggregation was induced by adenosine-diphosphoric acid (ADP) on human blood. The IC50 values given in the Table are the concentrations which produce 50%-inhibition of platelet aggregation.
INHIBITING ACTIVITIES ON PLATELET AGGREGATION INDUCED BY ADP

[2] = tested on: carbon tetrachloride-induced liver damage; test: carbon tetrachloride-induced liver damage in rats; assay type: in vivo; conditions: oral, in comparison with controls
Experimental: The experiments were carried out by the methods described in Example 1 of the specification of published W. German Patent Application No. 3310556.1 and Japanese Patent Kokai No. 58-164512, except that carbon tetrachloride was used as a 10% solution in olive oil.

[3] = acute toxicity in mice by oral administration; conditions: mouse, in vivo
Experimental: For example, in a test of acute toxicity in mice by oral administration, the value of LD50 of 6-keto-16S,18S-ethano-20-ethyl-PGE1 for the compound of the present invention is very large; that is the value is more than […] animal body weight.

[4] = ADP-induced platelet aggregation, human blood

| IC50 [1, 4] [ng/mL] | SMILES | IC50 ([1]; Homo sapiens, Platelet) [ng/mL] | activity as compared with the comparison compound (times as strong) ([1]; compared with compound of Example 2(d) of U.S. Pat. No. 4,278,688, platelet aggregation) | Relative activity against PGE1 ([1]; human blood) | inhibition of plasma GOT (glutamic oxalacetic transaminase) ([2]; 20 μg/kg) [%] | inhibition of plasma GPT (glutamic pyruvic transaminase) ([2]; 20 μg/kg) [%] | inhibition of plasma GOT (glutamic oxalacetic transaminase) ([2]; 50 μg/kg) [%] | inhibition of plasma GPT (glutamic pyruvic transaminase) ([2]; 50 μg/kg) [%] | LD50 [3] [mg/kg] |
| --- | --- | --- | --- | --- | --- | --- | --- | --- | --- |
|  | CCCC[C@H]1CC[C@H]([C@H](O)/C=C/[C@H]2[C@H](O)CC(=O)[C@@H]2CC(=O)CCCCC(=O)O)C1 [6-keto-16S,18S-ethano-20-ethyl-PGE1, 6,9-dioxo-11α,15α-dihydroxy-16S,18S-ethano-20-ethylprost-13E-enoic acid] | 0.08 (≈ 0.189 nM) | about 45 times | 431 | 47 | 42 | 64 | 66 | > 3 |
| 34.5 (≈ 97.3 nM) | CCCCC[C@H](O)/C=C/[C@H]1[C@H](O)CC(=O)[C@@H]1CCCCCCC(=O)O [PGE1, reference compound] |  |  |  |  |  |  |  |  |
| 3.6 (≈ 8.25 nM) | CCCCC1CCC([C@H](O)/C=C/[C@H]2[C@H](O)CC(=O)[C@@H]2CC(=O)CCCCC(=O)OC)C1 (some centres unmarked) [reference compound] |  |  | 9.58 |  |  |  |  |  |
